Marks after values point to notes of the source that are not given here.
How the values were obtained:
Rhizoctonia oryzae = experiment: Test G: turf brown patch, preventive spray on creeping bent grass seedlings
Procedure: (the causal agent of turf brown patch) and incubated in a saturated atmosphere at 27° C. for 24 h, and then moved to a growth chamber at 27° C. for 5 days, after which disease ratings were made.

Pythium aphanidermatum = experiment: Test A: bluegrass pythium blight, preventive spray on bluegrass seedlings
Septoria nodorum = experiment: Test H: wheat glum blotch, preventive spray on wheat seedlings
Procedure: (the causal agent of wheat glum blotch) and incubated in a saturated atmosphere at 20° C. for 48 h, and then moved to a growth chamber at 22° C. for 5 days, after which disease ratings were made.

Plasmopara viticola = experiment: Test D: grape downy mildew, spray after inoculation of grape seedlings; type: in vivo
Source text: Upon removal, disease ratings were made. […] A dash (-) indicates no test results.

[1] = test system: Erysiphe graminis f. sp. tritici; experiment: Test L: wheat powdery mildew, preventive spray on wheat seedlings
[2] = test system: Puccinia recondita f. sp. tritici; experiment: Test K: wheat leaf rust, preventive spray on wheat seedlings
Septoria tritici = experiment: Test J: wheat leaf blotch, preventive spray on wheat seedlings; type: in vivo
Source text: A dash (-) indicates no test results.

Sclerotinia sclerotiorum = experiment: Test C: cucumber white mold, preventive spray on cucumber seedlings
[3] = test system: Colletotrichum orbiculare; experiment: Test B: cucumber Colletotrichum anthracnose, preventive spray on cucumber seedlings
Botrytis cinerea = experiment: Test E: tomato botrytis, preventive spray on tomato seedlings
Phytophthora infestans = experiment: whole plant or invertebrate; type: in vivo
[4] = 40 ppm (marked *), 100 = 100% disease control, 0 = no control
[5] = 200 ppm, 100 = 100% disease control, 0 = no control

| Compound | Test G disease control rating (Rhizoctonia oryzae; 40 ppm (*)) | Test A disease control rating (Pythium aphanidermatum; 40 ppm (*)) | Test H disease control rating (Septoria nodorum; 40 ppm (*)) | Test D disease control rating (Plasmopara viticola; 40 ppm (*)) | Test L disease control rating ([1]; 40 ppm (*)) | Test K disease control rating ([2]; 40 ppm (*)) | Test J disease control rating (Septoria tritici; 40 ppm (*)) | Test C disease control rating (Sclerotinia sclerotiorum; 40 ppm (*)) | Test B disease control rating ([3]; 40 ppm (*)) | Test E disease control rating (Botrytis cinerea; 40 ppm (*)) | Test F disease control rating (Phytophthora infestans; 40 ppm (*)) | further results |
| --- | --- | --- | --- | --- | --- | --- | --- | --- | --- | --- | --- | --- |
| CCCCn1c(-c2c(F)cc(F)cc2F)c(Cl)nc(-n2cccn2)c1=O [compound 227] | 100* % | 0* % | 100* % | 96* % | 99* % | 100* % | 100* % | 0* % | 96* % | 100* % | 0* % | – |
| CCCCn1c(-c2c(F)cc(F)cc2F)c(Cl)nc(-n2ccc(C)n2)c1=O [compound 228] | 99* % | 0* % | 100* % | 77* % | 99* % | 99* % | 99* % | 0* % | 98* % | 100* % | 0* % | – |
| CCCCn1c(-c2c(F)cc(F)cc2F)c(Cl)nc(-n2cncn2)c1=O [compound 229] | 16* % | 0* % | 82* % | 0* % | 88* % | 17* % | 57* % | 0* % | 0* % | 95* % | 0* % | – |
| CCCCn1c(-c2c(F)cc(F)cc2F)c(Cl)nc(-n2nccc2C)c1=O [compound 239] | 0* % | 0* % | 0* % | 0* % | 0* % | 0* % | 19* % | 0* % | 0* % | 0* % | 0* % | – |
| CCCCn1c(-c2c(F)cc(F)cc2F)c(Cl)nc(-c2ccccn2)c1=O [compound 240] | 0* % | 0* % | 78* % | 0* % | 98* % | 67* % | 93* % | 0* % | 9* % | 100* % | 0* % | – |
| Cc1ccn(-c2nc(Cl)c(-c3c(F)cccc3F)n(CC(C)C)c2=O)n1 [compound 241] | 85* % | 0* % | 95* % | 33* % | 93* % | 100* % | 100* % | 0* % | 92* % | 100* % | 0* % | – |
| Cc1ccn(-c2nc(C)c(-c3c(F)cccc3F)n(CC(C)C)c2=O)n1 [compound 243] | 68* % | 0* % | 0* % | 0* % | 98* % | 45* % | 86* % | 0* % | 0* % | 100* % | 0* % | – |
| CC(C)Cn1c(-c2cccnc2Cl)c(Cl)nc(-n2cccn2)c1=O [compound 244] | 0* % | 0* % | 0* % | 31* % | 0* % | 8* % | 9* % | 0* % | 0* % | 42* % | 0* % | – |
| COc1cccc(-c2c(Cl)nc(-n3cncn3)c(=O)n2CC(C)C)c1 [compound 245] | 0* % | 0* % | 0* % | 0* % | 0* % | 0* % | 46* % | 0* % | 0* % | 0* % | 0* % | – |
| COc1cccc(-c2c(Cl)nc(-n3cccn3)c(=O)n2CC(C)C)c1 [compound 246] | 0* % | 0* % | 0* % | – | 78* % | 0* % | 26* % | 0* % | 0* % | 99* % | 0* % | Test D disease control rating (Plasmopara viticola; 200 ppm): 9% |
| Cc1cccc(-c2c(Cl)nc(-n3cncn3)c(=O)n2CC(C)C)c1 [compound 247] | 0* % | 0* % | 0* % | 0* % | 0* % | 0* % | 35* % | 0* % | 0* % | 0* % | 0* % | – |
| Cc1cccc(-c2c(Cl)nc(-n3cccn3)c(=O)n2CC(C)C)c1 [compound 248] | 0* % | 0* % | 0* % | 0* % | 0* % | 0* % | 44* % | 0* % | 0* % | 66* % | 0* % | – |
| CC(C)Cn1c(-c2cccc(C#N)c2)c(Cl)nc(-n2cncn2)c1=O [compound 249] | – | – | – | – | – | – | – | – | – | – | – | Test G disease control rating (Rhizoctonia oryzae; [4]): 0* %; Test A disease control rating (Pythium aphanidermatum; [4]): 0* %; Test H disease control rating (Septoria nodorum; [4]): 0* %; Test D disease control rating (Plasmopara viticola; [4]): 0* %; Test L disease control rating [1, 4]: 0* %; Test K disease control rating [2, 4]: 0* %; Test J disease control rating (Septoria tritici; [4]): 26* %; Test C disease control rating (Sclerotinia sclerotiorum; [4]): 0* %; Test B disease control rating [3, 4]: 0* %; Test E disease control rating (Botrytis cinerea; [4]): 0* %; Test F disease control rating (Phytophthora infestans; [4]): 0* % |
| CC(C)Cn1c(-c2cccc(C#N)c2)c(Cl)nc(-n2cccn2)c1=O [compound 250] | – | – | – | – | – | – | – | – | – | – | – | Test G disease control rating (Rhizoctonia oryzae; [4]): 0* %; Test A disease control rating (Pythium aphanidermatum; [4]): 0* %; Test H disease control rating (Septoria nodorum; [4]): 0* %; Test D disease control rating (Plasmopara viticola; [4]): 0* %; Test L disease control rating [1, 4]: 0* %; Test K disease control rating [2, 4]: 0* %; Test J disease control rating (Septoria tritici; [4]): 30* %; Test C disease control rating (Sclerotinia sclerotiorum; [4]): 0* %; Test B disease control rating [3, 4]: 0* %; Test E disease control rating (Botrytis cinerea; [4]): 0* %; Test F disease control rating (Phytophthora infestans; [4]): 0* % |
| CC(C)Cn1c(-c2cccc3c2OCO3)c(Cl)nc(-n2cccn2)c1=O [compound 251] | – | – | – | – | – | – | – | – | – | – | – | Test G disease control rating (Rhizoctonia oryzae; [5]): 21%; Test A disease control rating (Pythium aphanidermatum; [5]): 0%; Test H disease control rating (Septoria nodorum; [5]): 82%; Test D disease control rating (Plasmopara viticola; [5]): 0%; Test L disease control rating [1, 5]: 0%; Test K disease control rating [2, 5]: 17%; Test J disease control rating (Septoria tritici; [5]): 97%; Test C disease control rating (Sclerotinia sclerotiorum; [5]): 0%; Test B disease control rating [3, 5]: 0%; Test E disease control rating (Botrytis cinerea; [5]): 99%; Test F disease control rating (Phytophthora infestans; [5]): 0% |
| CC(C)Cn1c(-c2ccc3c(c2)OC(F)(F)O3)c(Cl)nc(-n2cccn2)c1=O [compound 252] | – | – | – | – | – | – | – | – | – | – | – | Test G disease control rating (Rhizoctonia oryzae; [5]): 0%; Test A disease control rating (Pythium aphanidermatum; [5]): 0%; Test H disease control rating (Septoria nodorum; [5]): 0%; Test D disease control rating (Plasmopara viticola; [5]): 0%; Test L disease control rating [1, 5]: 0%; Test K disease control rating [2, 5]: 0%; Test J disease control rating (Septoria tritici; [5]): 53%; Test C disease control rating (Sclerotinia sclerotiorum; [5]): 0%; Test B disease control rating [3, 5]: 0%; Test E disease control rating (Botrytis cinerea; [5]): 0%; Test F disease control rating (Phytophthora infestans; [5]): 0% |
| CC(C)Cn1c(-c2cc3c(cc2Cl)OCO3)c(Cl)nc(-n2cccn2)c1=O [compound 253] | – | – | – | – | – | – | – | – | – | – | – | Test G disease control rating (Rhizoctonia oryzae; [5]): 0%; Test A disease control rating (Pythium aphanidermatum; [5]): 0%; Test H disease control rating (Septoria nodorum; [5]): 0%; Test D disease control rating (Plasmopara viticola; [5]): 0%; Test L disease control rating [1, 5]: 0%; Test K disease control rating [2, 5]: 0%; Test J disease control rating (Septoria tritici; [5]): 66%; Test C disease control rating (Sclerotinia sclerotiorum; [5]): 0%; Test B disease control rating [3, 5]: 0%; Test E disease control rating (Botrytis cinerea; [5]): 0%; Test F disease control rating (Phytophthora infestans; [5]): 0% |

Source: patent US20080194585A1, “Fungicidal Pyrazine Derivatives” (priority 2005, published 2008)
